In patent US20260041725A1, “MYCONOSIDE-RICH EXTRACT FROM IN VITRO SYSTEMS OF PLANTS BELONGING TO GENERA HABERLEA AND RAMONDA, METHOD OF PREPARATION, AND USE AS CHEMO-, RADIO- AND UV PROTECTOR” (INNOVA BM Ltd., priority 2022, published 2026):

How the values were obtained:
[1] = DPPH radical scavenging activity by direct EPR spectroscopy, with UV protector Oxybenzone (Example 5); conditions: for percentage of trapped DPPH radicals: 0.5% aqueous solution, FIG. 4
Protocol: The radical scavenging activities (% inhibition) of aqueous solutions (0.5%) of Extract 1, Extract 2 (obtained according to Example 1), Oxybenzone, and 1:1 extract: Oxybenzon combinations (w/w) was evaluated by a DPPH test. A comparative DPPH analysis was carried out and the antioxidant potential of Extract 1, Extract 2, a commercial UV protector (Oxybenzone), as well as combinations of Extract 1 with Oxybenzone and of Extract 2 with Oxybenzone was compared. […] The method of direct EPR spectroscopy was used (Yordanov and Christova, 1997; Karamalakova, 2014). To measure DPPH radical scavenging capacity, 98% ethanolic solution of DPPH (80 mM, stock) was used, room temperature (22° C.), and Extract 1, Extract 2, Oxybenzone and the relevant combinations (at a concentration of 0.5%) were mixed and homogenized. The mixture was incubated in the dark, and examined for DPPH-H/R radicals generated in the system at the 1st, 5th and 10th minute. DPPH solution was used as an internal standard for the EPR signal (FIG. 4).

[2] = system: human lymphocyte cultures; experiment: Cytokinesis-block micronucleus test, irradiated and non-irradiated blood (Example 7); type: cell-based; conditions: non-irradiated blood cells; FIG. 7A
Excerpt: The anticlastogenic potential of Extract 1 and Extract 2 (obtained according to Example 1), as well as of the clinically proven cytoprotective agent amifostine, was investigated individually and in combinations on human lymphocyte cultures in vitro before and after exposure to ionizing radiation (gamma rays) by micronucleus scoring tests. […] A compound is considered mutagenic when it increases the spontaneous frequency of the micronuclei (MN) in polychromatic erythrocytes or in lymphocytes. […] The cytokinesis-block micronucleus assay of Fenech, M. and A. Morley (1985) was used to analyze MN in binuclear lymphocytes from peripheral blood. The number of MN found in the examined 500 binuclear cells from cell cultures prepared with irradiated and non-irradiated peripheral venous blood taken from 5 healthy volunteers was investigated. The blood of the donors was exposed to 2.0 Gy 60Co gamma radiation (y-rays) in a water bath (37° C.) with a Rokus-M irradiator at 24 Gy/min. Exposure was calculated depending on the geometrical parameters of the irradiator, the distance and power of the source.

[3] = DPPH radical scavenging activity before and after 2.0 Gy gamma irradiation (Example 6); conditions: 0.25% aqueous solution, FIG. 6
Protocol: The effect of combinations of the investigated extracts with the commercial radioprotector amifostine was also studied before and after gamma irradiation (FIG. 6). 2.0 Gy 60Co gamma radiation (y-rays) was performed in a water bath (37° C.) with a Rokus-M irradiator at 24 Gy/min.

[4] = DPPH radical scavenging activity by direct EPR spectroscopy, with radioprotector amifostine (Example 6); conditions: 0.5% aqueous solution, FIG. 5
Excerpt: It has been proven that free radicals generated after exposure to gamma radiation are highly reactive and can trigger chain reactions leading to significant biological damage and increased oxidative stress. […] They are substances and compounds of synthetic or natural origin that allow the body's cells to withstand higher levels of radiation or can quickly eliminate the harmful genotoxic effects of such radiation and maintain human genome stability. […] (FIG. 5).

[5] = system: human lymphocyte cultures; experiment: Induced chromosomal aberrations test, before and after gamma irradiation (Example 8); type: cell-based; conditions: non-irradiated blood cells; FIG. 8A
Excerpt: The clastogenic activity and anticlastogenic potential of Extract 1 and Extract 2 (obtained according to Example 1), as well as of the clinically proven cytoprotective agent amifostine, were investigated alone and in combination on human lymphocyte cultures in vitro before and after exposure to ionizing radiation (y-rays) through tests for detection of induced chromosomal aberrations.
The study design included a total of 6 groups, including the untreated control. In each group, 5 blood donors were examined, and in each donor 100 metaphase plates obtained from lymphocyte cells from peripheral venous blood were analyzed for chromosomal aberrations, or a total of 500 metaphase plates for each group.
Cell cultures were prepared using the method of Evans H. J. for short-term culturing of peripheral blood lymphocytes and obtaining metaphase plates for chromosome aberration reading. Chromosome microscope slides were observed on an Olympus BX41 microscope at the most convenient magnifications—screening preparations at magnification 63 and detailed analysis of chromosomes for aberrations at magnification 1000. A minimum of 100 metaphases from each sample were analyzed. […] Exposure was calculated depending on the geometrical parameters of the irradiator, the distance and power of the source.

[6] = UVA and UVB light transmission (T %) of dilutions of Extract 2 (Example 4); type: physicochemical; conditions: FIG. 3
Protocol: UVA and UVB light transmission (T %) was studied for different dilutions of Extract 2 (obtained according to Example 1 herein) with myconoside concentrations of 0.11 mg/ml, 0.055 mg/ml, 0.011 mg/ml, 0 0.0055 mg/ml, and 0.00275 mg/ml, as presented in FIG. 3.

COc1ccc(C(=O)c2ccccc2)c(O)c1 [Oxybenzone]
percentage of trapped DPPH radicals ([1]; 1st minute): 4.7%
percentage of trapped DPPH radicals ([1]; 5th minute): 3.2%
percentage of trapped DPPH radicals ([1]; 10th minute): 2.2%
antioxidant activity (in words) ([1]; 0.5%, Oxybenzone alone vs 1:1 combinations with extracts, p<0.001): very low antioxidant activity

NCCCNCCSP(=O)(O)O [amifostine]
clastogenic activity (number of MN in 500 binuclear cells) [2]: lack of clastogenic activity
percentage of trapped DPPH radicals ([3]; after 2.0 Gy gamma irradiation): 5.9%
percentage of trapped DPPH radicals ([3]; before gamma irradiation): 2.5%
percentage of trapped DPPH radicals ([4]; 1st minute): 5.1%
percentage of trapped DPPH radicals ([4]; 5th minute): 4.5%
percentage of trapped DPPH radicals ([4]; 10th minute): 3.9%
clastogenic activity (frequency of aberrant cells) [5]: no clastogenic activity

O=C(CCc1ccc(O)c(O)c1)O[C@H]1[C@H](O[C@H]2OC[C@](O)(CO)[C@H]2O)[C@@H](O)[C@H](OCCc2ccc(O)c(O)c2)O[C@@H]1CO[C@@H]1OC[C@](O)(CO)[C@H]1O [myconoside, [(2R,3R,4R,5R,6R)-4-[(2R,3R,4R)-3,4-dihydroxy-4-(hydroxymethyl)oxolan-2-yl]oxy-2-[[(2R,3R,4R)-3,4-dihydroxy-4-(hydroxymethyl)oxolan-2-yl]oxymethyl]-6-[2-(3,4-dihydroxyphenyl)ethoxy]-5-hydroxyoxan-3-yl]3-(3,4-dihydroxyphenyl)propanoate]
protection (UV radiation transmission) ([6]; maximum concentration of 0.11 mg/ml of myconoside (dilutions of Extract 2 of Example 1)): 100%
inhibition of UV radiation transmission ([6]; minimum concentration of 0.011 mg/ml of myconoside (dilutions of Extract 2 of Example 1)): 50%
